Experiments:
Type in all cases: cell-based
[1] = system: HepG2; assay: Transfection with pCMV GFP plasmid, % GFP positive cells by FACS (Table 3); settings: HepG2, DOPE
Experimental: (§1) Transfections were carried out following standard protocols as is described in EP 0755924. In numerous publications variations of transfection protocols are given. A person acquainted with the field of non-viral transfections, in particular transfections using cationic amphiphiles will be able to use the cationic amphiphiles of the invention in transfection methods known per se. In standard experiments COS-7 cells are transfected with plasmid DNA containing the β-galactosidase reporter gene. Upon successful transfection the cell produces the enzyme β-galactosidase whose activity can be easily measured. Other plasmids comprising alternative reporter genes such as the gene encoding Green Fluorescent Protein or Chloroamphenicol Acetyl Transferase are suited as well. For analyzing stable transfection a plasmid containing the neomycin resistance gene can be used. Toxicity of the cationic amphiphiles towards the cells can be monitored qualitatively and quantitatively by visual inspection of the cells and by a protein determination.
(§2) A solution of cationic amphiphile in a 50/50 molar ratio with DOPE, DOPC or cholesterol in chloroform was dried under a stream of nitrogen. The residual solvent was removed under vacuum. The lipid film was hydrated in water at room temperature and sonicated to clarity in a bath sonicator immediately before use.
(§3) A 4.7 kb pair plasmid containing the GFP reporter gene under control of the cytomegalovirus immediate early gene promoter/enhancer (pCMV GFP).DNA was isolated from E. coli using a Qiagen Plasmid Kit (QIAGEN Inc, USA). The plasmid concentration was determined by measuring the absoption at 260 nm using the relation 1.0 OD=50 μg/ml. The OD260/OD280 value was 1.95.
(§4) COS-7 and HepG2 cells were cultured in Dulbecco's Modified Eagle Medium (DMEM Gibco The Netherlands) containing 7% of fetal calf serum, 2 mM L-Glutamine, 100 units/ml of penicilin and […] of streptomycin at 37° C. in CO2/air (1:19).
(§5) Cells (1×10^5 cells/well) were seeded in 12-well plates and were allowed to grow overnight.
(§6) The complex of cationic amphiphile/helper lipid (1:1) with pCMV GFP was prepared at the charge ratio 2.5:1 (15 nmol lipid and 1 μg DNA), in 100 μl 10 mM HEPES (pH=7.4, 150 mM NaCl). After 10-15 min incubation at room temperature, the resulting complex was diluted in 1 ml medium (DMEM) and 0.5 ml of the mixture was added to the cells and incubated for 4 h at 37° C. The transfection efficiency expressed as a percentage of GFP positive cells was measured by FACS (Fluorescence Activated Cell Soorting) 48 hours after the transfection.
(§7) Control wells underwent identical steps except that no cationic amphiphile was added.

[2] = system: COS-7 and HepG2 cells; assay: Transfection with pCMV GFP plasmid, % GFP positive cells by FACS (cell line not given); settings: cell line and helper lipid not given
Experimental: as §1, §2, §3, §4, §5, §6, §7

[3] = system: HepG2; assay: Cell survival after transfection (Table 3); settings: HepG2, DOPE; also: tested at 6.8 µM
Experimental: as §1, §4, §5, §6, §7

[4] = system: COS-7 and HepG2 cells; assay: Cell survival after transfection (cell line not given); settings: cell line and helper lipid not given; for % surv / % surv mean: Table 11
Experimental: as §1, §4, §5, §6, §7
For % surv mean in this document: tested at 6.8 µM.

CCCCCCCC/C=C\CCCCCCCC[n+]1ccc(CCCCCCCCC)cc1.[Cl-] [SF42, 1-(9′-cis-octadecenyl)-4-nonyl-pyridinium Chloride]
% TE ([1]; first value): 1.2% | % TE mean [1]: 0.925% | % TE ([1]; second value): 0.65% | % TE ([2]; Table 4): 5.05% | % TE ([2]; Table 5): 0.81% | % TE ([2]; Table 6): 5.13% | % TE ([2]; Table 11, first value): 8.41% | % TE mean ([2]; Table 11): 7.95% | % TE ([2]; Table 11, second value): 7.49% | % surv cells ([3]; first value): 40.1% | % surv cells Mean [3]: 33.785% | % surv cells ([3]; second value): 27.47% | % surv cells ([4]; Table 4): 70.14% | % surv cells ([4]; Table 5): 75.02% | % surv cells ([4]; Table 6): 93.49% | % surv ([4]; first value): 86.37% | % surv mean [4]: 84.435% | % surv ([4]; second value): 82.5%

CCCCCCCC/C=C\CCCCCCCC[n+]1ccc(CCCCCCCCCCC)cc1 [SF43, 1-(9′-cis-octadecenyl)-4-undecyl-pyridinium Chloride]
% TE ([1]; first value): 5.71% | % TE mean [1]: 5.805% | % TE ([1]; second value): 5.9% | % TE ([2]; Table 4): 9.18% | % TE ([2]; Table 5): 0.55% | % TE ([2]; Table 6): 10.22% | % TE ([2]; Table 11, first value): 24.6% | % TE mean ([2]; Table 11): 24.2% | % TE ([2]; Table 11, second value): 23.8% | % surv cells ([3]; first value): 52.11% | % surv cells Mean [3]: 53.845% | % surv cells ([3]; second value): 55.58% | % surv cells ([4]; Table 4): 68.12% | % surv cells ([4]; Table 5): 85.51% | % surv cells ([4]; Table 6): 86.86% | % surv ([4]; first value): 85.42% | % surv mean [4]: 84.395% | % surv ([4]; second value): 83.37%

CCCCCCCC/C=C\CCCCCCCC[n+]1ccc(CCCCCCCCCCCCCCC)cc1.[Cl-] [SF44, 1-(9′-cis-octadecenyl)-4-pentadecyl-pyridinium Chloride]
% TE ([1]; first value): 12.53% | % TE mean [1]: 11.185% | % TE ([1]; second value): 9.84% | % TE ([2]; Table 4): 10.13% | % TE ([2]; Table 5): 1.64% | % TE ([2]; Table 6): 8.89% | % TE ([2]; Table 11, first value): 9.1% | % TE mean ([2]; Table 11): 8.67% | % TE ([2]; Table 11, second value): 8.24% | % surv cells ([3]; first value): 45.21% | % surv cells Mean [3]: 49.18% | % surv cells ([3]; second value): 53.15% | % surv cells ([4]; Table 4): 66.51% | % surv cells ([4]; Table 5): 92.1% | % surv cells ([4]; Table 6): 93.99% | % surv ([4]; first value): 90.36% | % surv mean [4]: 88.91% | % surv ([4]; second value): 87.46%

CCCCCCCC/C=C\CCCCCCCC[n+]1ccc(CCCCCCCCCCCCCCCCC)cc1.[Cl-] [SF45, 1-(9′-cis-octadecenyl)-4-(heptadecyl) pyridinium Chloride]
% TE ([1]; first value): 8.93% | % TE mean [1]: 6.465% | % TE ([1]; second value): 4% | % TE ([2]; Table 4): 9.71% | % TE ([2]; Table 5): 3.38% | % TE ([2]; Table 6): 5.35% | % TE ([2]; Table 11, first value): 0.27% | % TE mean ([2]; Table 11): 0.15% | % TE ([2]; Table 11, second value): 0.03% | % surv cells ([3]; first value): 40.24% | % surv cells Mean [3]: 31.565% | % surv cells ([3]; second value): 22.89% | % surv cells ([4]; Table 4): 67.4% | % surv cells ([4]; Table 5): 93.02% | % surv cells ([4]; Table 6): 92.61% | % surv ([4]; first value): 90.01% | % surv mean [4]: 87.55% | % surv ([4]; second value): 85.09%

CCCCCCCC/C=C\CCCCCCCCCc1cc[n+](CCCCCCCCCCCCCCCCCC)cc1.[Cl-] [SF46, 1-stearyl-4-(10′-cis-nonadecenyl)-pyridinium Chloride]
% TE ([1]; first value): 11.65% | % TE mean [1]: 9.07% | % TE ([1]; second value): 6.49% | % TE ([2]; Table 4): 9.17% | % TE ([2]; Table 5): 2.71% | % TE ([2]; Table 6): 1.11% | % TE ([2]; Table 11, first value): 10.6% | % TE mean ([2]; Table 11): 10.6% | % surv cells ([3]; first value): 16.79% | % surv cells Mean [3]: 15.445% | % surv cells ([3]; second value): 14.1% | % surv cells ([4]; Table 4): 72.57% | % surv cells ([4]; Table 5): 76.34% | % surv cells ([4]; Table 6): 93.55% | % surv ([4]; first value): 87.02% | % surv mean [4]: 87.02%

CCCCCCCCCCCCOC(=O)c1cc[n+](CCCCCCCCCCCC)cc1.[Cl-] [SF53, 1-dodecyl-4-(-carbo-(dodecyloxy)) pyridinium Chloride]
% TE ([1]; first value): 2.13% | % TE mean [1]: 2.13% | % TE ([2]; Table 4): 9.04% | % TE ([2]; Table 5): 0.71% | % TE ([2]; Table 6): 0.56% | % TE ([2]; Table 11, first value): 6.67% | % TE mean ([2]; Table 11): 6.67% | % surv cells ([3]; first value): 37.51% | % surv cells Mean [3]: 37.51% | % surv cells ([4]; Table 4): 65.91% | % surv cells ([4]; Table 5): 91.6% | % surv cells ([4]; Table 6): 91.74% | % surv ([4]; first value): 84.51% | % surv mean [4]: 84.51%
